Source: patent US9394555B2, “Compositions comprising a polypeptide having cellulolytic enhancing activity and a dioxy compound and uses thereof” (priority 2010, dated 2016)

B1: T. aurantiacus GH61A polypeptide: GH61A polypeptide having cellulolytic enhancing activity (SEQ ID NO: 14), recombinantly produced in Aspergillus oryzae JaL250 (protein, listed as Thermoascus aurantiacus)
chain: MSFSKIIATAGVLASASLVAGHGFVQNIVIDGKYYGGYLVNQYPYMSNPPEVIAWSTTATDLGFVDGTGYQTPDIICHRGAKPGALTAPVSPGGTVELQWTPWPDSHHGPVINYLAPCNGDCSTVDKTQLEFFKIAESGLINDDNPPGIWASDNLIAANNSWTVTIPTTIAPGNYVLRHEIIALHSAQNQDGAQNYPQCINLQVTGGGSDNPAGTLGTALYHDTDPGILINIYQKLSSYIIPGPPLYTG

How the values were obtained:
[1] = tested on: T. aurantiacus CEL5A endoglucanase II and P. brasilianum CEL3A beta-glucosidase; test: Microcrystalline cellulose conversion assay I (Examples 8, 9) without GH61 polypeptide; assay type: biochemical, Thermoascus aurantiacus; Penicillium brasilianum; conditions: dioxy compound 0.3% w/w + endoglucanase II + beta-glucosidase (5 mg/g each), no GH61; 96 hours, at either 50° C. or 60° C.
Protocol: A 5% microcrystalline cellulose slurry was prepared by addition of 2.5 g of AVICEL®PH101 (Sigma-Aldrich, St. Louis, Mo., USA) to a graduated 50 ml screw-cap conical tube followed by 15 ml of 1 M sodium acetate pH 5 and 1 ml of 100 mM MnSO4 and approximately 20 ml of deionizer water. Each conical tube was then mixed thoroughly by shaking/vortexing, and adjusted to 50 ml total with deionized water and mixed again. Contents of the tube were then quickly transferred to a 100 ml beaker and stirred rapidly with a magnetic stirrer. Five hundred μl aliquots of the 5% AVICEL® slurry were pipetted into wells of a 2.0 ml 96-deepwell plate (Axygen, Union City, Calif., USA) using a 1000 μl micropipette with a wide aperture tip (end of tip cut off about 2 mm from the base). Three hundred μl of either deionized water or a 1% dioxy compound solution (dissolved in deionized water) was added to each well.
The dioxy compounds assayed include caffeic acid (Sigma-Aldrich, St. Louis, Mo., USA), dichlorophenolindophenol (DCPIP; Sigma-Aldrich, St. Louis, Mo., USA), ethyl gallate (Sigma-Aldrich, St. Louis, Mo., USA), gallic acid (Sigma-Aldrich, St. Louis, Mo., USA), 3,4-dihydroxybenzoic acid (Sigma-Aldrich, St. Louis, Mo., USA), pyrocatechol (Sigma-Aldrich, St. Louis, Mo., USA), pyrogallol (Sigma-Aldrich, St. Louis, Mo., USA), sinapinic acid (3,5 dimethoxy-4-hydroxy cinnamic acid; Apin Chemicals LTD, Abingdon, UK), and tannic acid (Sigma-Aldrich, St. Louis, Mo., USA).
Enzyme mixtures were prepared and then added simultaneously to all wells in a volume of 200 μl, for a total of 1 ml in each reaction. […] All experiments reported were performed in triplicate.
After approximately 4 days, the deep-well plate was removed from the incubator and chilled overnight to 4° C. The plate was then mixed well by inversion and briefly centrifuged at 52×g in a SORVALL® RT7 centrifuge (Thermo Fisher Scientific, Waltham, Mass., USA) for 10 seconds. Samples were then mixed by pipetting, and 200 μl from each well were transferred to a MULTISCREEN® HV centrifuge filter plate assembly (Millipore, Bedford, Mass., USA). The centrifuge filter plate assembly was centrifuged at 2000 rpm in a SORVALL® RT7 centrifuge for 20 minutes. […] Sugars were detected using a refractive index detector (Agilent Technologies, Inc., Santa Clara, Calif., USA) with quantification by integration compared to purified sugar standards.
(§1) In this assay only glucose was measured since beta-glucosidase was at high levels in all samples but the controls.
(§2) A limit digest was performed to determine the total concentration accessible glucose equivalents using 100 mg of T. reesei cellulase (CELLIC™ CTec, Novozymes A/S, Bagsvaerd, Denmark) per gram cellulose, Triplicate data points were averaged and standard deviation was calculated.

[2] = target: T1, T. aurantiacus GH61A polypeptide (Thermoascus aurantiacus, UniProt G3XAP7, N13Y); test: Bacterial cellulose conversion assay (Examples 15, 16); assay type: biochemical; conditions: 72 hours, 50° C.
Protocol: Bacterial cellulose was prepared from NATA DE COCO (Huerto International Trading, Lucena City, Philippines) by extensive rinsing of one 500 ml can of cubes with water followed by homogenation for 15 minutes in 0.25 M sodium hydroxide using a WARING BLENDER® (Waring Products, Torrington, Conn., USA). The resulting slurry was pelleted at 40,000×g in a SORVALL® RT7 centrifuge. The supernatant was discarded. The pellet was then resuspended in 0.25 M sodium hydroxide and stirred overnight at 4° C. This procedure was repeated four times. Following the first washing steps, the cellulose was washed six times under similar conditions, substituting water for 0.25 M sodium hydroxide. Following the water washing, the cellulose was again homogenized for 15 minutes in a WARING BLENDER®, and adjusted to a final volume of 250 ml.
A 0.36% bacterial cellulose slurry was prepared as described in Example 14. This 0.36% slurry was thoroughly resuspended by shaking, and quickly transferred to a 100 ml beaker and stirred rapidly with a magnetic stirrer. Seven hundred μl aliquots of the bacterial cellulose slurry were pipetted into wells of a 2.0 ml 96-deepwell plate (Axygen, Union City, Calif.) using a 1000 μl micropipette with a wide aperture tip (end of tip cut off about 2 mm from the base). One hundred μl of 10 mM MnSO4-500 mM sodium acetate pH 5 was then added to each well. One hundred μl of either deionized water, a 1% gallic acid solution dissolved in water, or a 1% gallic acid solution containing 50 mM EDTA were added to each well. Enzyme mixtures were prepared and then added simultaneously to all wells in a volume of 100 μl, for a total of 1 ml in each reaction. […] All experiments reported were performed in triplicate.
Primary analysis of the hydrolysis reactions was performed using an AGILENT® 1100 HPLC with CHEMSTATION® software equipped with an AMINEX™ HPX-87H column. After approximately 4 days, the deep-well plate was removed from the incubator and chilled overnight to 4° C. The plate was then mixed well by inversion and briefly centrifuged 52×g in a SORVALL® RT7 centrifuge for 10 seconds. Samples were then mixed by pipetting, and 200 μl from each well were transferred to a MULTISCREEN® HV centrifuge filter plate assembly. The centrifuge filter plate assembly was centrifuged at 2000 rpm in a SORVALL® RT7 centrifuge for 20 minutes. […] Sugars were detected using a refractive index detector with quantification by integration compared to purified sugar standards.
All HPLC data processing was performed using MICROSOFT EXCEL™ software. […] In this assay only glucose was measured since beta-glucosidase was at high levels in all samples but the controls. Percent conversion was determined using Equation 1. Triplicate data points were averaged and standard deviation was calculated.
The bacterial cellulose hydrolysis assay was performed as described in Example 15.
Data was collected and analyzed, as described in Example 15, after 72 hours of incubation at 50° C.

[3] = target: T2, Aspergillus oryzae CEL3A beta-glucosidase (Aspergillus oryzae, UniProt Q2UUD6); test: Variable pH PASC conversion assay (Examples 29, 30) without GH61 polypeptide; assay type: biochemical; conditions: gallic acid 0.2% w/w + Aspergillus oryzae CEL3A beta-glucosidase (10 mg/g), no GH61, 72 hours, 50° C.
T2 construct: made in house

[4] = target: T1, T. aurantiacus GH61A polypeptide; test: Microcrystalline cellulose conversion assay I (Examples 8, 9) with T. aurantiacus GH61A polypeptide; assay type: biochemical; conditions: T. aurantiacus GH61A polypeptide (10 mg per g cellulose) + endoglucanase II + beta-glucosidase (5 mg/g each), no dioxy compound, 96 hours
Protocol: A 5% microcrystalline cellulose slurry was prepared by addition of 2.5 g of AVICEL®PH101 (Sigma-Aldrich, St. Louis, Mo., USA) to a graduated 50 ml screw-cap conical tube followed by 15 ml of 1 M sodium acetate pH 5 and 1 ml of 100 mM MnSO4 and approximately 20 ml of deionizer water. Each conical tube was then mixed thoroughly by shaking/vortexing, and adjusted to 50 ml total with deionized water and mixed again. Contents of the tube were then quickly transferred to a 100 ml beaker and stirred rapidly with a magnetic stirrer. […]
After approximately 4 days, the deep-well plate was removed from the incubator and chilled overnight to 4° C. […] Sugars were detected using a refractive index detector (Agilent Technologies, Inc., Santa Clara, Calif., USA) with quantification by integration compared to purified sugar standards.
as §1, §2

T2 sequence (Q2UUD6 20-861): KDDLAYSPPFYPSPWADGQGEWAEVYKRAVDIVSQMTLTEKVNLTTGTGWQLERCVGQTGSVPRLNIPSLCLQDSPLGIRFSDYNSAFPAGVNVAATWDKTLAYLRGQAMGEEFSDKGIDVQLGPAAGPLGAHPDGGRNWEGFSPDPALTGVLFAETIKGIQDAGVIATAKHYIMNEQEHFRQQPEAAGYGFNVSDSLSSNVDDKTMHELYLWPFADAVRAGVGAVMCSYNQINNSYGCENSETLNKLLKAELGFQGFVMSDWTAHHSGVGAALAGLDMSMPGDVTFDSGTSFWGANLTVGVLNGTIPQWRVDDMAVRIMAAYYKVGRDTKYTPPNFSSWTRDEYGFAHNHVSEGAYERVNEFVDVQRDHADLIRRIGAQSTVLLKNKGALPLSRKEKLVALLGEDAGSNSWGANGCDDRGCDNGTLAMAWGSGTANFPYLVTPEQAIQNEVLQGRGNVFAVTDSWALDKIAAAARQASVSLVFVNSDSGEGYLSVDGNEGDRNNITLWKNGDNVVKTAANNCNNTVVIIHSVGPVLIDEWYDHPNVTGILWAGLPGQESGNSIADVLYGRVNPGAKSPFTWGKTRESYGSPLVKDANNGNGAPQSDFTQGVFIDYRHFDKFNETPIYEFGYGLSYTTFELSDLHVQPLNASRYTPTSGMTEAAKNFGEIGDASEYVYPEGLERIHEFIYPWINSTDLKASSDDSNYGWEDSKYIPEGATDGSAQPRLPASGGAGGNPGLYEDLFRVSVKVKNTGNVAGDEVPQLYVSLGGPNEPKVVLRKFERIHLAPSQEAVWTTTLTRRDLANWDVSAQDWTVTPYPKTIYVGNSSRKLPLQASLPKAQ

Molecule	change in conversion of microcrystalline cellulose compared to the enzymes in the absence of the dioxy compound [1]	hydrolysis of the bacterial cellulose ([2]; gallic acid 0.1% w/w + 5 mM EDTA + A. oryzae CEL3A beta-glucosidase (50 mg/g), no GH61)	hydrolysis of the bacterial cellulose ([2]; gallic acid 0.1% w/w + 5 mM EDTA + T. aurantiacus GH61A polypeptide (50 mg/g), no beta-glucosidase)	conversion of the bacterial cellulose ([2]; gallic acid 0.1% w/w + 5 mM EDTA, no enzymes)	hydrolysis of the bacterial cellulose ([2]; gallic acid 0.1% w/w + A. oryzae CEL3A beta-glucosidase (50 mg/g), no GH61)	conversion of the bacterial cellulose ([2]; gallic acid 0.1% w/w alone, no enzymes)	conversion of phosphoric acid swollen cellulose ([3]; pH 4)	conversion of phosphoric acid swollen cellulose ([3]; pH 5)	conversion of phosphoric acid swollen cellulose ([3]; pH 6)	conversion of phosphoric acid swollen cellulose ([3]; pH 7.5)	conversion of microcrystalline cellulose ([4]; 50° C.)	conversion of microcrystalline cellulose ([4]; 60° C.)	conversion of the bacterial cellulose ([2]; T. aurantiacus GH61A polypeptide (50 mg/g) + A. oryzae CEL3A beta-glucosidase (50 mg/g), no gallic acid)	conversion of the bacterial cellulose ([2]; T. aurantiacus GH61A polypeptide (50 mg/g) alone)
O=C(O)c1cc(O)c(O)c(O)c1 [gallic acid]	no significant change	no significant hydrolysis	no significant hydrolysis	no significant conversion	no significant hydrolysis	no significant conversion	1.6±0.2%	2.0±0.7%	1.2±0.5%	1.9±1.2%				
B1											2.2±0.1%	2.6±0.1%	no significant conversion	1.5±1.4%
